{"source": "patent US20220362329A1", "about": "“TREATING ACUTE LIVER DISEASE WITH TLR-MIK INIHIBITORS” (Yeda Research and Development Co. Ltd., priority 2020, published 2022)", "key": {"[1]": {"test_system": "ALF mouse models", "assay": "Liver enzymes activity measurement (serum ALT and AST) in ALF mouse models", "format": "in vivo, mice", "settings": "for ALT activity in serum / AST activity in serum: APAP-induced ALF model, inhibitor i.p. 1 hour after 500 mg/kg APAP", "description": "(§1) Mouse models—8 weeks old C57BL6 male mice were injected intraperitoneally with 500 mg/kg body mass acetaminophen (APAP) in PBS or 300 mg/kg of thioacetamide (TAA) in PBS, 20 hours prior to sample collection. To avoid known circadian effects, all injections were performed between 1 pm and 2 pm. Control mice were injected with vehicle (PBS). For antibiotic treatment, mice were given a cocktail of ampicillin (1 g/l), kanamycin (1 g/l), vancomycin (0.5 g/l) and metronidazole (1 g/l) in drinking water for two weeks. MyD88 and Trif double knockout mice were 8 weeks old, males on C57BL6 background^55. All experimental procedures involving mice were approved by the local IACUC.\nMYC inhibition—MYC inhibitor KJ-Pyr-9 or vehicle control was injected intraperitoneally 2 hours following injection of APAP or PBS vehicle control. […] Mice were injected with 0.5 ml per 20 g, so the final dose of KJ-Pyr-9 was 25 mg per kilogram of body mass.\n(§2) Inhibition of MAPK pathway proteins—The inhibitors listed in Table 1 hereinbelow were injected intraperitoneally 1 hour following injection of 500 mg/kg APAP or corresponding PBS vehicle. Briefly. The inhibitors were dissolved in 5% DMSO in PBS to a final injection volume of 400 μl for 20 g mouse. Control mice were injected with 5% DMSO in PBS vehicle."}, "[2]": {"test_system": "Ly6C-positive monocytes", "assay": "Measurement of monocyte infiltration by FACS in ALF mouse models", "format": "in vivo, mice", "settings": "for monocyte infiltration: APAP-induced ALF model, inhibitor i.p. 1 hour after 500 mg/kg APAP", "description": "as §1\nMeasurement of monocyte infiltration—Livers harvested from mice were finely chopped with sterile scissors and digested with 4 ml of pre-warmed 0.4 mg/ml protease and 0.1 U/ml collagenase D (EBS buffer: 8 g/l NaCl, 0.4 g/l KCl, 88 mg/l NaH2PO4.H2O, 120 mg/l Na2HPO4.H2O, 2.38 g/l HEPES, 0.35 g/l NaHCO3, 0.42 g/l CaCl2) for 30 minutes at 37° C. while shaking Following, 10 ml of cold PBS was added and the suspension was filtered through a 100 μm mesh. To deplete hepatocytes, samples were centrifuged at 30 g for 5 minutes and the supernatant was transferred to new tubes. Cells were collected by centrifugation at 580 g. To lyse red blood cells, 1 ml of Gibco™ ACK Lysing Buffer was added and cells were incubated at room temperature for one minute. Subsequently, cold PBS was added and cells were collected by centrifugation at 580 g.\nReceptors on the cells were first blocked with TruStain FcX anti-mouse CD16/32, then the cells were washed with FACS buffer (PBS without calcium and magnesium, 1% FCS), collected by centrifugation at 580 g and stained with CD45-PECy7 (Biolegend, 30F11, cat. 103114), F4/80-FITC (Serotec, Cl:A3-1, cat. G00018) and Ly6C-APC (Biolegend, HK14, cat. 128016) antibodies for 1 hour on ice. Finally, the cells were washed with FACS buffer, collected by centrifugation at 580 g, resuspended in FACS buffer, filtered through 40 μm mesh and measured on DB LSRFortessa. Data was analysed using FlowJo software.\n(§3) MYC inhibition—MYC inhibitor KJ-Pyr-9 or vehicle control was injected intraperitoneally 2 hours following injection of APAP or PBS vehicle control. Briefly, 10 mg of KJ-Pyr-9 (Tocris, cat 5306) was dissolved in 1 ml of DMSO and then combined with Tween 80 and 5% dextrose 1:1:8 by volume. Mice were injected with 0.5 ml per 20 g, so the final dose of KJ-Pyr-9 was 25 mg per kilogram of body mass.\nInhibition of MAPK pathway proteins—The inhibitors listed in Table 1 hereinbelow were injected intraperitoneally 1 hour following injection of 500 mg/kg APAP or corresponding PBS vehicle. Briefly. The inhibitors were dissolved in 5% DMSO in PBS to a final injection volume of 400 μl for 20 g mouse. […]"}, "[3]": {"test_system": "ALF mouse models", "assay": "Histology score of H&E stained liver sections in ALF mouse models", "format": "in vivo, mice", "settings": "for liver damage, histopathological analysis: APAP-induced ALF model, inhibitor i.p. 1 hour after 500 mg/kg APAP", "description": "as §1\nHistology—Sample from the left lobe of the liver was fixed in 4% paraformaldehyde, embedded in paraffin, sectioned and stained with hematoxylin and eosin (H&E). Slides were scored by a blinded veterinary pathologist for necrosis and hemorrhage on a scale from 0 (healthy) to 5 (most severe).\nas §3, §2"}, "[4]": {"test_system": "ALF mouse models", "assay": "Survival of APAP-administered mice", "format": "in vivo", "settings": "n=15 per group", "description": "as §1, §3"}, "[5]": {"test_system": "stellate, endothelial and Kupffer cells", "assay": "Single cell RNA sequencing of liver cells", "format": "in vivo, mice", "settings": "for number of differentially expressed genes: pseudobulk counts", "description": "as §1\nFollowing, liver was dissected, placed in cold EBS solution, shaken vigorously with forceps for separation of single cells, followed by filtration through a 100 μm mesh. Hepatocytes were depleted by centrifugation at 30 g for 5 minutes. Cells were then collected by centrifugation at 580 g and resuspended in cold PBS. To enrich for stellate cells, cells with retinoid fluorescence in the Pacific Blue channel were sorted using a BD FACSAria III. Following, stellate cells were mixed with unsorted cells, spun down, resuspended in PBS with 0.04% BSA and counted using Neubauer chamber.\n10× library preparation and sequencing—Single cells were captured and processed using the 10× Genomics Chromium 3′ Single Cell RNA seq protocol according to the manufacturers' manual. Subsequently, RNA was sequenced using NextSeq® 500/550 High Output Kit v2 (Illumina cat no. 20024906).\nas §3\nMapping: Single cell RNA sequencing data were demultiplexed, mapped to the GRCm38 mouse genome and UMIs were counted using the Cell Ranger Single-Cell Software Suite 2.1.1. Filtering and doublet removal: Cells with less than 100 detected transcripts and more than 10% mitochondrial reads were removed. Clustering analysis was used to identify populations of thrombocytes, erythrocytes, neutrophils and mast cells. Following, a second filtering was effected using 600 detected transcripts. […] The second step was necessary, as there were many low quality cells with low threshold. Following, doublets were identified by finding clusters of cells expressing gene expression patterns of two cell types at the same time. Marker sets used were Dcn, Colec11, Ecm1, Cxcl12, Sod3, Angptl6, Rgs5, Reln, Tmem56, Rbp1, G0s2, Rarres2, Acta2, Tagln for stellate cells; Gpihbp1, Aqp1, Clec4g, Dnase113, Fabp4, Ptprb, Kdr, Gpr182 for endothelial cells; Alb, Ttr, Ambp, Rbp4, Cyp2e1, Spp1 for hepatocytes; Cd3e, Cd3g, Cd3d, Lat, Thy1, Cxcr6, Nkg7, Cd4, Cd8b1, Klra4, Ncr1, Gzmb, Lck, Txk, Ms4a4b, Ccl5 for T cells; Cd79b, Cd79a, Ms4a1, Siglecg, Fcmr, Cd19, Fcer2a for B cells; Adgre1, Cd51, Clec4f, Timd4, Folr2, C1qa, C1qb, C1qc, Vsig4, Xcr1, Cd209a, Itgax, Siglech, Chil3, F13a1, S100a4, Lgals3, Gda, S100a9, Retnlg for macrophages, DCs and neutrophils; Alas2, Hbb-bt, Hbb-bs, Hba-a2, Hba-a1 for erythrocytes. Clustering—All cells from all 22 samples were first clustered using R package Seurat v2.3.4 FindClusters function^56. Genes that were present in less than 3 cells were removed and then highly variable genes were identified as having mean of non-zero values between 0.0125 and 3 and standard deviation higher than 0.5. Dimensionality reduction was effected with PCA and first 50 PCs were used for clustering.\nAs the liver population is very complex, it was decided to perform stepwise clustering. First, expression of Ecm1, Ptprc, Ptprb, Epcam, Msln and Alb in the obtained clusters was determined. […]"}, "[6]": {"test_system": "APAP-induced ALF", "settings": "intravenous; cited from earlier work"}, "[7]": {"settings": "both ALF models (APAP, TAA), KJ-Pyr-9 25 mg/kg i.p."}, "[8]": {"settings": "steady state, endothelial cells"}}, "data": [{"smiles": "CN1C(=O)C(Cc2c[nH]c3ccccc23)NC1=S", "note": "(centres unmarked) [RIP1 inhibitor, Nec1]", "values": [{"measurement": "ALT activity in serum", "setting": "[1]", "result": "significantly reduced"}, {"measurement": "AST activity in serum", "setting": "[1]", "result": "significantly reduced"}]}, {"smiles": "C[S+]([O-])c1ccc(-c2nc(-c3ccncc3)c(-c3ccc(F)cc3)[nH]2)cc1", "note": "(centres unmarked) [p38 inhibitor, SB203580]", "values": [{"measurement": "monocyte infiltration", "setting": "[2]", "result": "significant reduction"}, {"measurement": "ALT activity in serum", "setting": "[1]", "result": "significantly reduced"}, {"measurement": "AST activity in serum", "setting": "[1]", "result": "significantly reduced"}, {"measurement": "liver damage, histopathological analysis", "setting": "[3]", "result": "significantly reduced liver damage"}]}, {"smiles": "NC(=O)c1ccc(-c2cc(-c3ccc([N+](=O)[O-])cc3)nc(-c3ccco3)c2)cc1", "note": "[MYCi, KJ-Pyr-9]", "values": [{"measurement": "infiltration of Ly6C-positive monocytes (F4/80 and Ly6C double-positive cells within the immune CD45-positive population)", "setting": "[2]; ALF mice (FIGS. 4C APAP, 19A TAA), KJ-Pyr-9 25 mg/kg i.p. 2 hours after APAP", "result": "dramatic reduction"}, {"measurement": "Serum ALT activity", "setting": "[1]; [7]", "result": "attenuated"}, {"measurement": "Serum AST activity", "setting": "[1]; [7]", "result": "attenuated"}, {"measurement": "hepatic damage, tissue histology by H&E staining", "setting": "[3]; during ALF (FIGS. 4F-G APAP, 19C-D TAA), KJ-Pyr-9 25 mg/kg i.p.", "result": "reduced hepatic damage"}, {"measurement": "mortality", "setting": "[4]", "result": "attenuated"}, {"measurement": "expression of metallothionein 1 and 2 (Mt1 and Mt2)", "setting": "[5]; ALF", "result": "remained unaffected"}, {"measurement": "neutrophil infiltration", "setting": "[5]; ALF", "result": "not affected"}, {"measurement": "total gene expression level", "setting": "[5]; ALF", "result": "lower total gene expression level"}, {"measurement": "expression of neutrophil attractant chemokine Cxcl2", "setting": "[5]; ALF, Kupffer cells", "result": "did not get downregulated"}, {"measurement": "expression of the 82 genes constituting the common activation signature", "setting": "[5]; ALF, activated stellate, Kupffer and endothelial cell subsets", "result": "markedly attenuated"}, {"measurement": "drop of median number of detected transcripts", "setting": "[5]; ALF, stellate cells", "result": "~4", "unit": "times"}, {"measurement": "upregulation of senescence and cell cycle arrest marker Cdkn1a (coding p21)", "setting": "[5]; ALF, stellate cells", "result": "attenuated"}, {"measurement": "median number of detected transcripts", "setting": "[5]; ALF, stellate cells, 3500 without MYC inhibition", "result": 945}, {"measurement": "activated populations (AAs, AAe, AAk)", "setting": "[5]; during ALF induction", "result": "did not arise"}, {"measurement": "Map3k8 expression (coding for TPL2)", "setting": "[5]; during ALF, activated resident populations", "result": "strong induction"}, {"measurement": "infiltration of Ly6C-positive monocytes to the liver (single cell transcriptomic data)", "setting": "[5]; either APAP- or TAA-induced ALF", "result": "near-total reduction"}, {"measurement": "effect on the gene expression landscape", "setting": "[5]; in the absence of liver failure", "result": "did not feature a notable effect"}, {"measurement": "differentially expressed genes", "setting": "[5]; steady state, Kupffer cells", "result": "downregulation of genes related to antigen processing and presentation"}, {"measurement": "number of differentially expressed genes", "setting": "[5]; steady state, Kupffer cells", "result": 94, "unit": "genes"}, {"measurement": "differentially expressed genes", "setting": "[5]; [8]", "result": "downregulation of genes of the AP1 family"}, {"measurement": "number of differentially expressed genes", "setting": "[5]; [8]", "result": 5, "unit": "genes"}, {"measurement": "gene ontology analysis of differentially expressed genes", "setting": "[5]; steady state, stellate cells", "result": "downregulation of genes coding for ribosome proteins and other components of the translation machinery"}, {"measurement": "number of differentially expressed genes", "setting": "[5]; steady state, stellate cells", "result": 148, "unit": "genes"}]}, {"smiles": "COc1cc(O)c2c(c1)/C=C/C[C@H](O)[C@H](O)C(=O)/C=C\\C[C@H](C)OC2=O", "note": "[TAK1 inhibitor, 5Z-7-Oxozeaenol]", "values": [{"measurement": "monocyte infiltration", "setting": "[2]", "result": "significant reduction"}, {"measurement": "AST activity in serum", "setting": "[1]", "result": "significantly reduced"}, {"measurement": "liver damage, histopathological analysis", "setting": "[3]", "result": "significantly reduced liver damage"}]}, {"smiles": "CC[C@@H]1[C@H](F)C(=O)N[C@@H]1COc1nccc2cc(C(N)=O)c(OC)cc12", "note": "[IRAK4 inhibitor, PF 06650833]", "values": [{"measurement": "monocyte infiltration", "setting": "[2]", "result": "significant reduction"}, {"measurement": "ALT activity in serum", "setting": "[1]", "result": "significantly reduced"}, {"measurement": "AST activity in serum", "setting": "[1]", "result": "significantly reduced"}, {"measurement": "liver damage, histopathological analysis", "setting": "[3]", "result": "significantly reduced liver damage"}]}, {"smiles": "CC(=O)N[C@@H](CS)C(=O)O", "note": "[N-acetylcysteine]", "values": [{"measurement": "adverse effects including anaphylactic reaction", "setting": "[6]", "result": "≤ 15 % of the cases"}, {"measurement": "effectiveness of the intervention", "setting": "[6]", "result": "only very partially effective"}]}]}
